Measured values taken from patent publication US20240315244A1, “ANTIVIRAL COATING AGENT, ANTIVIRAL AGENT, LAMINATED BODY, AND PACKAGE OR CONTAINER” (National Institute for Materials Science, priority 2021, published 2024).

Assay: solubility in organic solvents
Assay type: physicochemical

Q: What does the source list for `O=C(OCC1OC(OC(=O)c2cc(O)c(O)c(OC(=O)c3cc(O)c(O)c(O)c3)c2)C(OC(=O)c2cc(O)c(O)c(OC(=O)c3cc(O)c(O)c(O)c3)c2)C(OC(=O)c2cc(O)c(O)c(OC(=O)c3cc(O)c(O)c(O)c3)c2)C1OC(=O)c1cc(O)c(O)c(OC(=O)c2cc(O)c(O)c(O)c2)c1)c1cc(O)c(O)c(OC(=O)c2cc(O)c(O)c(O)c2)c1` (centres unmarked) [tannic acid, Tannic acid]?
A: solubility in low-polarity solvents (low-polarity solvents, such as ethyl acetate): insoluble; solubility in polar solvents (polar solvents, such as NPM or MEK): soluble
